In general, logP refers to a log measure of how a compound divides between an organic and an aqueous phase. For the compound `CO[C@H]1C[C@H](O[C@H]2[C@H](C)[C@@H](O[C@@H]3O[C@H](C)C[C@H](N(C)C)[C@H]3O)[C@@H](C)C[C@]3(CO3)C(=O)[C@H](C)[C@@H](O)[C@@H](C)[C@@H](C)OC(=O)[C@@H]2C)O[C@@H](C)[C@@H]1O`, the logP is 1.69.

Take `CCC1OC(=O)CC(O)C(C)C(OC2OC(C)C(O)C(N(C)C)C2O)C(CC=O)CC(C)C(=O)C=CC(C)=CC1CO` (stereo not given): the logP came out at 0.99.

With `CCC1OC(=O)C[C@@H](O)[C@H](C)[C@@H](O[C@@H]2O[C@H](C)C[C@H](N(C)C)[C@H]2O)[C@@H](CC=O)C[C@@H](C)C(=O)C=C[C@]2(C)OC2C1C` (stereo not given in full), the lipophilicity (logP) is 2.19.

`CC[C@H]1OC(=O)[C@H](C)[C@@H](O[C@H]2C[C@@](C)(OC)[C@@H](O)[C@H](C)O2)[C@H](C)[C@@H](O[C@@H]2O[C@H](C)C[C@H](N(C)C)[C@H]2O)[C@](C)(O)C[C@@H](C)CN(C)[C@H](C)[C@@H](O)[C@]1(C)O` came in with a logP of 4.02. In the case of `CC[C@H]1OC(=O)C[C@@H](O)[C@H](C)[C@@H](O[C@@H]2O[C@H](C)[C@@H](O[C@H]3C[C@@](C)(O)[C@@H](O)[C@H](C)O3)[C@H](N(C)C)[C@H]2O)[C@@H](CC=O)C[C@@H](C)C(=O)C=CC(C)=CC1CO[C@@H]1O[C@H](C)[C@@H](O)[C@@H](OC)[C@H]1OC` (stereo not given in full), the logP was found to be 1.63.

In turn, `CC[C@H]1OC(=O)[C@H](C)[C@@H](O[C@H]2C[C@@](C)(OC)[C@@H](O)[C@H](C)O2)[C@H](C)[C@@H](O[C@@H]2O[C@H](C)C[C@H](N(C)C)[C@H]2O)[C@](C)(O)C[C@@H](C)C(=O)[C@H](C)[C@@H](O)[C@]1(C)O` registered a logP of 3.06.

In turn, `CC[C@H]1OC(=O)C[C@@H](O)[C@H](C)[C@@H](O[C@@H]2O[C@H](C)[C@@H](O)[C@H](N(C)C)[C@H]2O)[C@@H](CCN2C[C@H](C)C[C@H](C)C2)C[C@@H](C)C(=O)C=CC(C)=C[C@@H]1CO[C@@H]1O[C@H](C)[C@@H](O)[C@@H](OC)[C@H]1OC` gave a logP of 3.8.

`CCC1OC(=O)C(C)C(OC2CC(C)(OC)C(O)C(C)O2)C(C)C(OC2OC(C)CC(N(C)C)C2O)C(C)(O)CC(C)C(N)C(C)C2OC(=O)OC12C` (stereo not given) displayed a logP of 2.92. The compound `CO[C@@H]1[C@@H](O[C@@H]2O[C@H](C)[C@@H](O[C@H]3C[C@@](C)(O)[C@@H](OC(=O)CC(C)C)[C@H](C)O3)[C@H](N(C)C)[C@H]2O)[C@@H](CC=O)C[C@@H](C)C(=O)C=CC2OC2C[C@@H](C)OC(=O)C[C@H]1OC(C)=O` (stereo not given in full) had a logP of 3.04. The compound `COC1C(OC(C)=O)CC(=O)OC(C)CC2OC2C=CC(=O)C(C)CC(CC=O)C1OC1OC(C)C(O)C(N(C)C)C1O` (stereo not given) came in with a log partition coefficient (logP) of 0.3.

These data come from the OPERA property sets (Mansouri et al. 2018).
